Reference: the supplement of paper PMC10307832

Key:
Test in all cases: relative viability (nuclei count vs DMSO), 5 days (fraction); higher = more cells survive
EHT 1864 + Luminespib = compound: C1COCCN1CC2=CC(=O)C(=CO2)OCCCCCSC3=C4C=CC(=CC4=NC=C3)C(F)(F)F [EHT 1864] + CCNC(=O)c1noc(-c2cc(C(C)C)c(O)cc2O)c1-c1ccc(CN2CCOCC2)cc1 [Luminespib] (partner 0.01 µM)
In short: (§1)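 Values are medians from duplicate plates. Each reflects relative viability, defined as the nuclei count of treated wells over that of vehicle wells. Lung cancer cell lines in 1536-well plates were pin-tool dosed one day after seeding with one drug alone or with a fixed anchor-drug dose plus five library-drug doses (not always all listed) in √10 steps, then fixed, stained and imaged at 4× after 5 days.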

EHT 1864 + Lapatinib = compound: C1COCCN1CC2=CC(=O)C(=CO2)OCCCCCSC3=C4C=CC(=CC4=NC=C3)C(F)(F)F [EHT 1864] + CS(=O)(=O)CCNCc1ccc(-c2ccc3ncnc(Nc4ccc(OCc5cccc(F)c5)c(Cl)c4)c3c2)o1 [Lapatinib] (partner 2 µM)
In short: as §1

EHT 1864 + Decitabine = compound: C1COCCN1CC2=CC(=O)C(=CO2)OCCCCCSC3=C4C=CC(=CC4=NC=C3)C(F)(F)F [EHT 1864] + Nc1ncn([C@H]2C[C@H](O)[C@@H](CO)O2)c(=O)n1 [Decitabine] (partner 2 µM)
In short: as §1

EHT 1864 + Olaparib = compound: C1COCCN1CC2=CC(=O)C(=CO2)OCCCCCSC3=C4C=CC(=CC4=NC=C3)C(F)(F)F [EHT 1864] + O=C(c1cc(Cc2n[nH]c(=O)c3ccccc23)ccc1F)N1CCN(C(=O)C2CC2)CC1 [Olaparib] (partner 8 µM)
In short: as §1

Row | Cell Line | relative viability (EHT 1864 + Luminespib; first compound 0.04 µM) | relative viability (EHT 1864 + Luminespib; first compound 0.1265 µM) | relative viability (EHT 1864 + Luminespib; first compound 0.4 µM) | relative viability (EHT 1864 + Luminespib; first compound 1.265 µM) | relative viability (EHT 1864 + Luminespib; first compound 4 µM) | relative viability (EHT 1864 + Lapatinib; first compound 0.04 µM) | relative viability (EHT 1864 + Lapatinib; first compound 0.1265 µM) | relative viability (EHT 1864 + Lapatinib; first compound 0.4 µM) | relative viability (EHT 1864 + Lapatinib; first compound 1.265 µM) | relative viability (EHT 1864 + Lapatinib; first compound 4 µM) | relative viability (EHT 1864 + Decitabine; first compound 0.04 µM) | relative viability (EHT 1864 + Decitabine; first compound 0.1265 µM) | relative viability (EHT 1864 + Decitabine; first compound 0.4 µM) | relative viability (EHT 1864 + Decitabine; first compound 1.265 µM) | relative viability (EHT 1864 + Decitabine; first compound 4 µM) | relative viability (EHT 1864 + Olaparib; first compound 0.04 µM) | relative viability (EHT 1864 + Olaparib; first compound 0.1265 µM) | relative viability (EHT 1864 + Olaparib; first compound 0.4 µM) | relative viability (EHT 1864 + Olaparib; first compound 1.265 µM) | relative viability (EHT 1864 + Olaparib; first compound 4 µM)
1 | NCI-H838 | 0.274 | 0.237 | 0.383 | 0.266 | 0.293 | 0.91 | 0.799 | 0.979 | 0.938 | 0.932 | 0.472 | 0.438 | 0.442 | 0.445 | 0.431 | 0.743 | 0.726 | 0.788 | 0.79 | 0.807
2 | SW 1573 | 0.24 | 0.356 | 0.31 | 0.215 | 0.187 | 1.22 | 0.912 | 1.12 | 1.03 | 1.06 | 0.655 | 0.478 | 0.463 | 0.55 | 0.339 | 0.499 | 0.515 | 0.451 | 0.472 | 0.423
3 | PC-14 | 0.121 | – | 0.199 | 0.196 | 0.143 | 0.316 | 0.28 | 0.325 | 0.294 | 0.272 | 0.213 | 0.201 | 0.265 | 0.244 | 0.162 | 0.264 | 0.36 | 0.266 | 0.331 | 0.265
4 | LK-2 | 0.167 | – | 0.224 | 0.178 | 0.177 | 1.05 | 0.797 | 0.911 | 1.03 | 0.881 | 0.292 | 0.312 | 0.169 | 0.333 | 0.265 | 0.518 | 0.608 | 0.608 | 0.551 | 0.68
5 | COR-L23 | 0.699 | 0.528 | 0.613 | 0.642 | 0.494 | 0.975 | 0.814 | 0.86 | 0.825 | 0.889 | 0.523 | 0.343 | 0.473 | 0.475 | 0.307 | 0.35 | 0.359 | 0.314 | 0.392 | 0.213
6 | NCI-H2170 | 0.725 | 0.751 | 0.745 | 0.63 | 0.612 | 0.272 | 0.268 | 0.283 | 0.239 | 0.271 | 0.488 | 0.451 | 0.488 | 0.473 | 0.467 | 0.595 | 0.628 | 0.61 | 0.581 | 0.547
7 | NCI-H2405 | 0.745 | 0.667 | 0.703 | 0.581 | 0.603 | 1.1 | 1.02 | 1.11 | – | 1.13 | 0.832 | 0.717 | 0.785 | 0.736 | 0.772 | 0.895 | 0.815 | 0.912 | 0.788 | 0.853
8 | SK-LU-1 | 0.184 | 0.181 | 0.214 | 0.229 | 0.219 | 0.91 | 0.65 | 0.795 | 0.878 | 0.781 | 0.732 | 0.632 | 0.567 | 0.657 | 0.658 | 0.464 | 0.515 | 0.471 | 0.451 | 0.447
9 | EMC-BAC-2 | 1.12 | 1.09 | 1.16 | 1.12 | 1.05 | 0.901 | 0.765 | 0.765 | 0.845 | 0.882 | 0.857 | 0.935 | 1 | 1.04 | 0.997 | 0.616 | 0.467 | 0.436 | 0.464 | 0.458
10 | NCI-H1650 | – | – | 0.203 | 0.201 | 0.198 | 0.741 | 0.443 | 0.812 | 0.841 | 0.589 | 0.411 | 0.385 | 0.435 | 0.47 | 0.5 | 0.722 | 0.63 | 0.776 | 0.845 | 0.682
11 | NCI-H596 | 0.953 | 0.986 | 1.03 | 0.972 | 1.05 | 1.16 | 0.968 | 1.12 | 1.01 | 1.09 | 0.937 | 1.05 | 1.14 | 1.09 | 1.24 | 0.773 | 0.719 | 0.8 | 0.781 | 0.777
12 | LCLC-97TM1 | 0.701 | 0.517 | 0.772 | 0.718 | 0.784 | 1.03 | – | 0.527 | 1.22 | 1.12 | 0.271 | 0.237 | 0.22 | 0.235 | 0.271 | 0.347 | 0.346 | 0.328 | 0.326 | 0.444
13 | H3255 | 0.895 | 0.799 | 1.01 | 0.917 | 1.07 | 0.235 | 0.239 | 0.275 | 0.298 | 0.317 | 0.585 | 0.548 | – | 0.573 | 0.677 | 0.56 | 0.537 | 0.573 | 0.55 | 0.569
14 | LXF-289 | 0.739 | 0.544 | 0.689 | 0.657 | 0.647 | 0.883 | 0.821 | 0.883 | 0.851 | 0.799 | 0.431 | 0.351 | 0.388 | 0.385 | 0.361 | 1.12 | 0.963 | 1.02 | 0.953 | 0.97
15 | UMC-11 | 1.03 | 0.925 | – | 1.02 | 1.12 | 0.724 | – | 1.05 | 0.938 | 0.987 | 0.447 | 1.15 | 0.731 | 0.693 | 0.736 | 0.379 | 0.383 | 0.426 | 0.383 | 0.356
16 | LC-2-ad | 1.12 | – | 0.912 | 1 | 0.951 | 0.993 | – | 0.954 | 0.904 | 0.835 | 0.783 | 0.733 | 0.762 | 0.773 | 0.755 | 0.602 | 0.671 | 0.657 | 0.671 | 0.625
17 | NCI-H1793 | 0.143 | – | 0.141 | – | 0.178 | – | 0.543 | 0.667 | 0.602 | 0.638 | 0.47 | 0.466 | 0.506 | 0.56 | 0.614 | 0.797 | 0.736 | 0.971 | 0.681 | 0.874
